The test system of the assay is IL-1β release upon NLRP3 activation in peripheral blood mononuclear cells (PBMC). The experiment in a line: PBMC IC50 Determination Assay. Format: cell-based. Particulars: Homo sapiens; PBMC from buffy coats, LPS 3 h, compound 30 min, then ATP (5 mM) or nigericin (10 μM) 1 h; IL-1β in media by ELISA (Protocol A) or HTRF (Protocol B). The protocol:
The compounds of the present disclosure were tested for their inhibitory activity against IL-1β release upon NLRP3 activation in peripheral blood mononuclear cells (PBMC).
Protocol A. PBMC were isolated from buffy coats by density gradient centrifugation on Histopaque-1077 (Sigma, cat no. 10771). Isolated cells were seeded into the wells of a 96-well plate and incubated for 3 h with lipopolysaccharide (LPS). Following medium exchange, the compounds of the present disclosure were added (a single compound per well) and the cells were incubated for 30 min. Next, the cells were stimulated either with ATP (5 mM) or nigericin (10 μM) for 1 h and the cell culture media from the wells were collected for further analysis.
The release of IL-1β into the media was determined by a quantitative detection of IL-1β in the media using an IL-1p enzyme-linked immunosorbent assay (ELISA) Ready-SET-Go!, eBioscience cat. No. 88-7261-88. Briefly, in a first step, high affinity binding plates (Corning, Costar 9018 or NUNC Maxisorp Cat No. 44-2404) were coated overnight at 4° C. with specific capture antibody included in the kit (anti-human IL-1β ref 14-7018-68). Subsequently, plates were blocked with blocking buffer for 1 h at room temperature (rt) and after washing with a buffer (PBS with 0.05% Tween-20) incubated with protein standard and culture media. After 2 h of incubation at rt, plates were washed and incubated with biotinylated detection antibody included in the kit (anti-human IL-1β Biotin ref. 33-7110-68) for 1 h at rt. Plates were washed and incubated with HRP-streptavidin for 30 min at rt and washed again. The signal was developed after addition of 3,3′,5,5′-tetramethylbenzidine-peroxidase (TMB) until colour appeared and the reaction was stopped by 2 M H2SO4. A microplate spectrophotometer (BioTek) was used to detect signals with 450 nm. The detection range of IL-1β ELISA was […].
Protocol B. PBMC were isolated from buffy coats by density gradient centrifugation on Histopaque-1077 (Sigma, cat no. 10771). Isolated cells were seeded into the wells (280,000 cells/well) of a 96-well plate and incubated for 3 h with lipopolysaccharide (LPS, 1 μg/mL diluted 1000× from a 1 mg/mL stock solution). The compounds of the present disclosure were added (a single compound per well) and the cells were incubated for 30 min. Next, the cells were stimulated with ATP (5 mM final concentration diluted 20× from a 100 mM stock solution) for 1 h and the cell culture media from the wells were collected for further analysis.
The release of IL-1β into the media was determined by quantitative detection of IL-1β in the media using HTRF®, CisBio cat. No. 62HIL1BPEH. Briefly, cell culture supernatant were dispensed directly into the assay plate containing antibodies labelled with the HTRF® donor and acceptor. A microplate spectrophotometer (BMG) was used to detect signals at 655 nm and 620 nm. The detection range of IL-1β HTRF® was 39-6500 μg/mL.
With `CCc1cc2c(s1)C(=O)N(CC(=O)Nc1ncc(C(F)(F)F)cc1F)CC21CC1` [Compound 56, 2-{2′-Ethyl-7′-oxo-6′,7′-dihydro-5′H-spiro[cyclopropane-1,4′-thieno[2,3-c]pyridin]-6′-yl}-N-[3-fluoro-5-(trifluoromethyl)pyridin-2-yl]acetamide], the IC50 lay in the range of 1 to 3 µM.
To `CCc1cc2c(s1)C(=O)N(CC(=O)Nc1ncc(Cl)cc1F)CC21CC1` [Compound 57, N-(5-Chloro-3-fluoropyridin-2-yl)-2-{2′-ethyl-7′-oxo-6′,7′-dihydro-5′H-spiro[cyclopropane-1,4′-thieno[2,3-c]pyridin]-6′-yl}acetamide] belongs 1 to 3 µM.
As for `O=C(CN1CC2(CC2)c2oc(C3CC3)cc2C1=O)Nc1ccc2nncn2c1` [Compound 58, 2-{2′-Cyclopropyl-4′-oxo-5′,6′-dihydro-4′H-spiro[cyclopropane-1,7′-furo[3,2-c]pyridin]-5′-y}—N-{[1,2,4]triazolo[4,3-a]pyridin-6-yl}acetamide], the IC50 fell in the range of 3 to 10 µM.
`O=C(CN1CC2(CC2)c2oc(C3CC3)cc2C1=O)Nc1ccc2nncn2n1` [Compound 59, 2-{2′-Cyclopropyl-4′-oxo-5′,6′-dihydro-4′H-spiro[cyclopropane-1,7′-furo[3,2-c]pyridin]-5′-yl}-N-{[1,2,4]triazolo[4,3-b]pyridazin-6-yl}acetamide]: the IC50 lay in the range of 0.1 to 1 µM.
Take `CCc1cc2c(s1)C(=O)N(CC(=O)Nc1ncc(N)cn1)CC21CC1` [Compound 60, N-(5-Aminopyrimidin-2-yl)-2-{2′-ethyl-7′-oxo-6′,7′-dihydro-5′H-spiro[cyclopropane-1,4′-thieno[2,3-c]pyridin]-6′-yl}acetamide]: the IC50 lay in the range of 0.1 to 1 µM.
`CCc1cc2c(s1)C(=O)N(CC(=O)Nc1ncc(OC)cn1)CC21CC1` [Compound 61, 2-{2′-Ethyl-7′-oxo-6′,7′-dihydro-5′H-spiro[cyclopropane-1,4′-thieno[2,3-c]pyridin]-6′-yl}-N-(5-methoxypyrimidin-2-yl)acetamide] returned an IC50 of 0.1 to 1 µM.
For the compound `CCc1cc2c(s1)C(=O)N(CC(=O)Nc1ncc(O)cn1)CC21CC1` [Compound 62, 2-{2′-Ethyl-7′-oxo-6′,7′-dihydro-5′H-spiro[cyclopropane-1,4′-thieno[2,3-c]pyridin]-6′-yl}-N-(5-hydroxypyrimidin-2-yl)acetamide], the IC50 fell in the range of 0.1 to 1 µM.
Take `CCc1cc2c(s1)C(=O)N(CC(=O)Nc1ncc(C#N)cn1)CC21CC1` [Compound 63, N-(5-Cyanopyrimidin-2-yl)-2-{2′-ethyl-7′-oxo-6′,7′-dihydro-5′H-spiro[cyclopropane-1,4′-thieno[2,3-c]pyridin]-6′-yl}acetamide]: the 50% inhibitory concentration (IC50) lay within 0.1 to 1 µM.
Compound `CC1CN(CC(=O)Nc2ncccn2)C(=O)c2cc(C3CC3)oc21` (stereo not shown) [Compound 65, 2-(2-Cyclopropyl-7-methyl-4-oxo-6,7-dihydrofuro[3,2-c]pyridin-5(4H)-yl)-N-(pyrimidin-2-yl)acetamide] displayed an IC50 of 0.1 to 1 µM.
For `CCc1cc2c(s1)C(=O)N(CC(=O)Nc1ncc(C#N)cc1F)CC21CC1` [Compound 66, N-(5-cyano-3-fluoropyridin-2-yl)-2-(2′-ethyl-7′-oxo-5′H-spiro[cyclopropane-1,4′-thieno[2,3-c]pyridin]-6′(7′H)-yl)acetamide] the value was 0.1 to 1 µM; for `CC1CN(CC(=O)Nc2ncccn2)C(=O)c2cc3scnc3n21` (stereo not shown) [Compound 67, 2-(5-Methyl-8-oxo-5,6-dihydrothiazolo[5′,4′:4,5]pyrrolo[1,2-a]pyrazin-7(8H)-yl)-N-(pyrimidin-2-yl)acetamide], 0.1 to 1 µM.
As to `CCc1cc2c(s1)C(=O)N(CC(=O)Nc1ncc3[nH]c(=O)n(C)c3n1)CC21CC1` [Compound 68, 2-(2′-Ethyl-7′-oxo-5′H-spiro[cyclopropane-1,4′-thieno[2,3-c]pyridin]-6′(7′H)-yl)-N-(9-methyl-8-oxo-8,9-dihydro-7H-purin-2-yl)acetamide], the IC50 lay in the range of 3 to 10 µM.
As for `CCc1cc2c(s1)C(C)CN(CC(=O)Nc1ncccn1)C2=O` (stereo not shown) [Compound 69], the IC50 lay in the range of 1 to 3 µM.

The term IC50 denotes the concentration that gives 50% inhibition.

These data come from US20260008780A1, “SUBSTITUTED 3,4-DIHYDROISOQUINOLIN-1(2H)-ONE DERIVATIVES AND RELATED USES” (NodThera Limited, priority 2022, published 2026).
